One series has as its system Nalm-6 (B-lineage ALL). The series is described as follows: MTT cytotoxicity assay, Nalm-6. The class given is cell-based. The settings on record: Homo sapiens, 24-36 hours at 37° C., 0.1 to 250 μM. The essentials: (§1)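 Cells were seeded at 2.5×10^4/well, grown 36 h, then exposed to compound at 0.1–250 μM in triplicate for 24–36 h at 37 °C. MTT (0.5 mg/ml final) was added for 4 h, and formazan was solubilised in SDS/HCl and read at 540 nm. Live-cell numbers came from standard curves, and IC50 values came from non-linear regression of percent survival.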
For orientation: Formazan colour is commonly taken as a measure of viable cells.

The test system of a further series is Molt-3 (T-lineage ALL). As to the kind of experiment: MTT cytotoxicity assay, Molt-3. It is filed as cell-based, human. The settings on record: MTT, 24-36 hours at 37° C., 0.1 to 250 μM. The method, boiled down:
as §1

Another series concerns BT-20 (breast cancer). The series is described as follows: MTT cytotoxicity assay, BT-20. The class given is cell-based. The settings on record: Homo sapiens, 24-36 hours at 37° C., 0.1 to 250 μM. The essentials:
as §1

In the next series the test system is U-373 (glioblastoma). The series is described as follows: MTT cytotoxicity assay, U-373. The settings on record: Homo sapiens, U373 MG, 24-36 hours at 37° C., 0.1 to 250 μM. It is filed as cell-based. The method, boiled down: as §1
Another series relates to primary leukemia cells. The series is described as follows: MTT cytotoxicity in primary cancer cells from six children with leukemia. The settings on record: 0 to 50 μM, all six patients. The class given is cell-based, human. The procedure: Cytotoxicity of various compounds against tumor cells was performed using the MTT (3-[4,5-[…]]-2,5-diphenyl tetrazolium bromide) assay (Boehringer Mannheim Corp., Indianapolis, Ind.). Unless otherwise specified, all cell lines were obtained from the American Type Culture Collection (ATCC). Briefly, exponentially growing cells were seeded into a 96-well plate at a density of 2.5×10^4 cells/well and incubated for 36 hours at 37° C. prior to drug exposure. On the day of treatment, culture medium was carefully aspirated from the wells and replaced with fresh medium containing the indicated compound at concentrations ranging from 0.1 to 250 μM. Triplicate wells were used for each treatment.
The cells were incubated with the various compounds for 24-36 hours at 37° C. in a humidified 5% CO2 atmosphere. […] The absorbence of each well was measured in a microplate reader (Labsystems) at 540 nm and a reference wavelength of 690 um. […] The percent survival was calculated using the formula: [formula]
The cytotoxicity of HI-131 against primary cancer cells was evaluated in leukemia cells taken from six children (FIG. 1A), using the MTT assay described for Example 3. […] Percent survival was calculated as described for Example 3 and plotted against the HI-131 concentration used in the experiment. […]

In a further series the test system is NALM-6 cells. As to the kind of experiment: Apoptosis induction, NALM-6 cells (in situ TUNNEL, confocal microscopy). The class given is cell-based, human. On the procedure: The ability of HI-131 to induce apoptosis cells was evaluated in human leukemia in NALM-6 cells and primary leukemic cells from 2 patients. Cells were treated with 50 μM compound HI-131 for 24 hours. After incubation, the cells were harvested and analyzed for apoptosis by in situ TUNNEL analysis and confocal laser scanning microscopy as described in Sudbeck et al., 1999, Clin Cancer Res., 5:1589-82. Controls were treated with vehicle alone.
Induction of apoptosis was further evaluated in primary leukemic cells and established NALM-6 and MOLT-3 cell lines following treatment with HI-131.

For orientation: IC50 means the concentration needed to halve the response being measured. A lower IC50 goes with greater potency. By fold induction is commonly meant the ratio of treated to control signal. Lower therefore signals a weak induction. On to `CCCCCCCCCCCCSC[C@H](NC(C)=O)C(=O)CCl` [HI-131, N-Ac-S-dodecyl-Cys chloromethyl ketone], for which the IC50 was determined as 2 µM in the series on Nalm-6 (B-lineage ALL), 2.3 µM in the series on Molt-3 (T-lineage ALL), 10 µM in the series with BT-20 (breast cancer) and 35.1 µM in the series with U-373 (glioblastoma). In addition, in the series on primary leukemia cells, the “cytotoxic effect in primary cancer cells” value is recorded as “dose dependent cytotoxic effect”. Moreover, the “apoptosis induction (TUNNEL/confocal), NALM-6” value in the series on NALM-6 cells (50 μM, 24 hours) is “greatly induced apoptosis”. Also, in the series on NALM-6 cells (Homo sapiens, NALM-6, 24 h, vs vehicle control (FIG. 3)), the fold induction at 50 µM was ~20.
